Values of other authors as cited in patent US5118493A, “Composition having reduced nephrotoxocity comprising a fatty acid containing component and cyclosporine” (Brigham and Women's Hospital, priority 1991, dated 1992).

Tested on: rats treated with CSA

SMILES: Cc1c(Cn2ccnc2)c2ccccc2n1CCC(=O)O [UK-38,485]
- glomerular filtration rate (GFR): improved
- urinary TxB2 levels: comparable to control levels
